Reference: patent US11413283B2, “Topical formulations for delivery of hedgehog inhibitor compounds and use thereof” (PellePharm, Inc., priority 2015, dated 2022)
Like-named read-outs stand apart in the source and are kept apart here.

What was measured:
[1] = tested on: Hedgehog (Hh) signaling pathway; conditions: Kim and Beachy, Cancer Cell, 17, 388-399, 2010; read-out: IC50 value for itraconazole (half maximal inhibitory concentration); cited from earlier work
[2] = Saturated solubility of itraconazole in solvents and solvent systems; assay type: physicochemical
[3] = Toxicokinetics of patidegib and metabolite IPI-230 in plasma after twice daily dermal application for 13 weeks; assay type: in vivo, Gottingen Minipig; conditions: for Cmax / AUC(0-t) / Tmax: Gottingen, minipig, plasma, topical or ocular; for Cmax / AUC(0-t): Gottingen Minipig plasma; for AUC(0-t): read-out: Mean Patidegib AUC0-24; for Tmax: dermal, minipig plasma, read-out: Individual Tmax
Experimental: A study was conducted to evaluate the toxicokinetics of patidegib when administered twice daily via dermal application for 13 weeks. As described in Example 11, the formulation identified herein as SS14 was prepared, with patidegib concentrations of 2% and 4%. The formulations, along with a placebo, were applied topically to Gottingen Minipigs® twice daily, and blood samples were collected on study days 1, 14 and 90 for analysis of patidegib and its metabolite, IPI-230.
A study was conducted to determine the toxicokinetics of patidegib and its metabolite, IPI-230, when patidegib was administered twice daily (approximately 8 hours apart) to Gottingen Minipigs® via dermal application for 13 weeks.
The formulation identified herein as SS14 was prepared, with 2% patidegib and with 4% patidegib. A placebo formulation was also prepared that was identical in all respects to SS14 except for the absence of the patidegib. The formulation was applied topically to the animals at patidegib dose levels of 0 mg/kg/day (untreated), 0 mg/kg/day (placebo), 40 mg/kg/day, and 80 mg/kg/day to Groups 1, 2, 3, and 4, respectively. Groups 1 and 3 consisted of four animals/sex/group and Groups 2 and 4 consisted of six animals/sex/group. Doses were administered twice daily (approximately 8 hours apart). Blood samples were collected from all animals, survival permitting, on Days 1, 14 (Group 4 only), and 90 predose and at approximately 2, 4, 6, 8 (just prior to the second daily dose), 10, 12, 14, 16, and 24 hours following the first daily dose. Plasma samples were assayed for patidegib and IPI-230. Only the 2-hour samples from the untreated and placebo groups were analyzed.
Noncompartmental analysis was applied to the individual plasma patidegib and IPI-230 concentration data for males and females. The following parameters were estimated: Cmax—Maximum observed concentration; Tmax—Time of maximum observed concentration; AUCTlast—Area under the concentration-time curve from hour 0 to the last measurable concentration, estimated by the linear trapezoidal rule; AUC0-24—Area under the concentration-time curve from hour 0 to hour 24, estimated by the linear trapezoidal rule; DN AUC0-24—Dose normalized AUC0-24, calculated as AUC0-24/dose level; DN Cmax—Dose normalized Cmax, calculated as Cmax/dose level.

[4] = tested on: cellular hedgehog pathway; conditions: Tremblay et al., J. Med. Chem. 2009; read-out: half maximal effective concentration for inhibition of cellular hedgehog pathway; cited from earlier work
[5] = minimum of 24 hours stirring at 25° C.
[6] = both sexes, 40 mg/kg/day, Day 90, Group 3, 40 mg/kg/day dermal twice daily, sexes combined MF
[7] = both sexes, 80 mg/kg/day, Day 1, Group 4, 80 mg/kg/day dermal twice daily, sexes combined MF
[8] = both sexes, 80 mg/kg/day, Day 14, Group 4, 80 mg/kg/day dermal twice daily, sexes combined MF
[9] = both sexes, 80 mg/kg/day, Day 90, Group 4, 80 mg/kg/day dermal twice daily, sexes combined MF
[10] = female, 40 mg/kg/day, Day 1, Group 3, 40 mg/kg/day dermal twice daily, sex F
[11] = female, 40 mg/kg/day, Day 90, Group 3, 40 mg/kg/day dermal twice daily, sex F
[12] = female, 80 mg/kg/day, Day 1, Group 4, 80 mg/kg/day dermal twice daily, sex F
[13] = female, 80 mg/kg/day, Day 14, Group 4, 80 mg/kg/day dermal twice daily, sex F
[14] = female, 80 mg/kg/day, Day 90, Group 4, 80 mg/kg/day dermal twice daily, sex F
[15] = male, 40 mg/kg/day, Day 90, Group 3, 40 mg/kg/day dermal twice daily, sex M
[16] = male, 80 mg/kg/day, Day 1, Group 4, 80 mg/kg/day dermal twice daily, sex M
[17] = male, 80 mg/kg/day, Day 14, Group 4, 80 mg/kg/day dermal twice daily, sex M
[18] = male, 80 mg/kg/day, Day 90, Group 4, 80 mg/kg/day dermal twice daily, sex M

Structure (SMILES): CCC(C)n1ncn(-c2ccc(N3CCN(c4ccc(OCC5COC(Cn6cncn6)(c6ccc(Cl)cc6Cl)O5)cc4)CC3)cc2)c1=O [itraconazole, (2R,4S)-rel-1-(butan-2-yl)-4-{4-[4-(4-(4-{[(2R,4S)-2-(2,4-dichlorophenyl)-2-(1H-1,2,4-triazol-1-ylmethyl)-1,3-dioxolan-4-yl]methoxy}phenyl)piperazin-1-yl]phenyl}-4,5-dihydro-1H-1,2,4-triazol-5-one]
- IC50 [1]: 800 nM
- solubility of itraconazole in water [2]: highly insoluble
- saturated solubility of itraconazole in N-methyl pyrrolidone [2, 5]: 7.65 % w/w
- solubility of itraconazole in benzyl alcohol [2, 5]: 14.97 % w/w
- solubility of itraconazole in castor oil [2, 5]: 0.01-0.05 % w/w
- solubility of itraconazole in diisopropyl adipate [2, 5]: 0.01-0.05 % w/w
- solubility of itraconazole in dimethicone 350 CST [2, 5]: 0.01-0.05 % w/w
- solubility of itraconazole in dimethyl isosorbide [2, 5]: 2.32 % w/w
- solubility of itraconazole in ethanol [2, 5]: 0.01-0.05 % w/w
- solubility of itraconazole in phenoxyethanol [2, 5]: 7.87 % w/w
- solubility of itraconazole in the remaining solvents investigated (not shown) [2, 5]: 0.01-0.20 % w/w

Structure (SMILES): CC1=C2C[C@H]3[C@@H](CC[C@@H]4C[C@H](NS(C)(=O)=O)CC[C@@]43C)[C@@H]2CC[C@@]2(C1)O[C@@H]1C[C@H](C)CN[C@H]1[C@H]2C [patidegib]
- dose proportionality of increases in mean Cmax and AUC0-24 ([3]; 40 to 80 mg/kg/day, Day 90): generally greater than dose proportional
- Cmax [3, 6]: 21.9 ng/mL
- AUC(0-t) [3, 6]: 329 ng·h/mL
- Cmax [3, 7]: 3.93 ng/mL
- AUC(0-t) [3, 7]: 37.1 ng·h/mL
- Cmax [3, 8]: 249 ng/mL
- AUC(0-t) [3, 8]: 4110 ng·h/mL
- Cmax [3, 9]: 75.8 ng/mL
- AUC(0-t) [3, 9]: 1240 ng·h/mL
- Tmax ([3]; both sexes, post the first or second dose on Day 1): 2 to 8 h
- Tmax ([3]; both sexes, post the first or second dose on Days 14 and 90): 2 to 6 h
- Cmax [3, 10]: 4.65 ng/mL
- AUC(0-t) [3, 10]: 56.7 ng·h/mL
- Cmax [3, 11]: 35 ng/mL
- AUC(0-t) [3, 11]: 526 ng·h/mL
- Cmax [3, 12]: 4.03 ng/mL
- AUC(0-t) [3, 12]: 36.3 ng·h/mL
- Cmax [3, 13]: 410 ng/mL
- AUC(0-t) [3, 13]: 6820 ng·h/mL
- Cmax [3, 14]: 141 ng/mL
- AUC(0-t) [3, 14]: 2310 ng·h/mL
- Cmax [3, 15]: 8.68 ng/mL
- AUC(0-t) [3, 15]: 132 ng·h/mL
- Cmax [3, 16]: 3.84 ng/mL
- AUC(0-t) [3, 16]: 37.7 ng·h/mL
- Cmax [3, 17]: 88.7 ng/mL
- AUC(0-t) [3, 17]: 1390 ng·h/mL
- Cmax [3, 18]: 21.4 ng/mL
- AUC(0-t) [3, 18]: 352 ng·h/mL
- EC50 [4]: 7 nM
